Results taken from ChEMBL document CHEMBL1154028, “Pyrazole acids as niacin receptor agonists for the treatment of dyslipidemia” (Bioorg Med Chem Lett, 2009).
Blank lines part the entries; values can stand above or below the molecule they belong to. The source made the active and inactive calls. No cut-off for these calls is given here.

How the values were obtained:
[1] = tested on: Rattus norvegicus; test: Toxicity in rat assessed as changes in rat ear blood perfusion upto 30 mg/kg, sc; assay type: organism-based; parameters: dose 30 mg/kg, route subcutaneous; details: in vivo
[2] = tested on: Rattus norvegicus; test: Decrease in blood free fatty acid level in rat at 3 mg/kg, po; assay type: functional; parameters: scale not given: the % may be the effect or the level left
[3] = tested on: Blood; test: Drug level in rat blood at 30 mg/kg, sc; assay type: ADME, organism-based; parameters: dose 30 mg/kg, route subcutaneous; details: in vivo, read-out: Drug uptake
[4] = tested on: Rattus norvegicus; test: Decrease in blood free fatty acid level in po dosed rat
[5] = molecular target: Hydroxycarboxylic acid receptor 2 (Homo sapiens) (UniProt Q8TDS4); test: Displacement of [3H]niacin from human niacin receptor expressed in […] cells at 25 uM in absence of 5% human serum; assay type: cell-based
[6] = molecular target: Hydroxycarboxylic acid receptor 2 (Homo sapiens) (UniProt Q8TDS4); test: Displacement of [3H]niacin from human niacin receptor expressed in […] cells at 25 uM in presence of 5% human serum; assay type: cell-based
[7] = tested on: Rattus norvegicus; test: Decrease in blood free fatty acid level in rat at 100 mg/kg, po after 20 mins; assay type: functional, organism-based; parameters: dose 100 mg/kg
[8] = Plasma clearance in mouse at 1 mg/kg, iv or 2 mg/kg, po; assay type: ADME, organism-based
[9] = Volume of distribution at steady state in mouse at 1 mg/kg, iv or 2 mg/kg, po; assay type: ADME, organism-based; details: in vivo, read-out: Vdss
[10] = Oral bioavailability in mouse at 2 mg/kg; assay type: ADME, organism-based; details: in vivo
[11] = Half life in mouse at 1 mg/kg, iv or 2 mg/kg, po; assay type: ADME, organism-based; details: in vivo
[12] = Cmax in mouse at 1 mg/kg, iv or 2 mg/kg, po; assay type: ADME, organism-based; details: in vivo

Sequence of Hydroxycarboxylic acid receptor 2 (Homo sapiens) (Q8TDS4 whole entry): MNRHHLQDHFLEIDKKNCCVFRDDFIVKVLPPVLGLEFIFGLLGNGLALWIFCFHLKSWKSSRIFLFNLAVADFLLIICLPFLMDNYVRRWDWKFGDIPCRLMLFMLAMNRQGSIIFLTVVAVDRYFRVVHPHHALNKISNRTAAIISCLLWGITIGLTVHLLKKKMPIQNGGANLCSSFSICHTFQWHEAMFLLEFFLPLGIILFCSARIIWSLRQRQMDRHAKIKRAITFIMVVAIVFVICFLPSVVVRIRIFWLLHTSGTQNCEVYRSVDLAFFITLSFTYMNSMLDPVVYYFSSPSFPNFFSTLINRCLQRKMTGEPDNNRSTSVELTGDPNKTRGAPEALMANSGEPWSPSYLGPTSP

SMILES: Br.O=C(O)c1n[nH]c2c1CC(c1cc(F)ccc1F)CC2 (centres undefined)
- Activity [1]: Non-toxic
- Activity [2]: 50%
- concentration [3]: 135 µM
- EC50 [4]: 3000 nM

SMILES: Fc1ncccc1C1CCC2=C(C1)C(=C1N=NN=N1)N=N2 (centres undefined)
- Activity [5]: 40%
- Activity [6]: 75%

SMILES: O=C(O)c1n[nH]c2c1CC(c1cc(F)ccc1F)CC2 (centres undefined)
- Activity [5]: 56%
- Activity [7]: Active
- Activity [6]: 84%

SMILES: Fc1ccc(F)c(C2CCc3[nH]nc(-c4nnn[nH]4)c3C2)c1 (racemic)
- Activity [6]: 17%

SMILES: O=C(O)c1n[nH]c2c1CC(c1ccccc1)CC2 (racemic)
- Activity [5]: 19%
- Activity [6]: 35%

SMILES: O=C(O)c1n[nH]c2c1CCC(c1ccccc1)C2 (racemic)
- Activity [5]: 63%

Continued, values first:

- Activity [5]: 90%
- clearance [8]: 21 mL/min/kg
- Vd [9]: 2.4 L/kg
- bioavailability [10]: 47%
- half-life [11]: 2.6 h
- Activity [6]: 88%
- Cmax [12]: 2.3 µM
SMILES: O=C(O)c1n[nH]c2c1CC(c1cccnc1F)CC2 (racemic)

- clearance [8]: 8.3 mL/min/kg
- Vd [9]: 1.4 L/kg
- bioavailability [10]: 53%
- half-life [11]: 2.9 h
- Cmax [12]: 3.3 µM
SMILES: O=C(O)c1n[nH]c2c1CC(c1cc(F)ccc1F)CC2 (racemic)

- Activity [6]: 20%
SMILES: O=C(O)c1n[nH]c2c1CC(c1ccccc1Cl)CC2 (racemic)

- Activity [6]: 18%
SMILES: O=C(O)c1n[nH]c2c1CC(c1ccccc1F)CC2 (racemic)

- Activity [5]: 60%
- Activity [6]: 69%
SMILES: O=C(O)c1n[nH]c2c1CC(c1ccnc(F)c1)CC2 (racemic)
